From ChEMBL document CHEMBL5331084, “Structure-based lead optimization of peptide-based vinyl methyl ketones as SARS-CoV-2 main protease inhibitors” (Eur J Med Chem, 2023) come the findings set out here.

The structures appear in SMILES notation.

The test system of this test is SARS-CoV-2. The experiment in a line: microbe, parasite or virus in culture. To be noted: Severe acute respiratory syndrome coronavirus 2, Munich 929, Huh-7.
As for `CCCC[C@H](NC(=O)OCc1ccccc1)C(=O)N[C@H](/C=C/C(C)=O)C[C@@H]1CCNC1=O`, the EC50 is 18.5 µM.
The value for `CC(=O)/C=C/[C@H](C[C@@H]1CCNC1=O)NC(=O)[C@H](CC1CC1)NC(=O)OCc1ccccc1` was 1.5 µM; that for `CC(=O)/C=C/[C@H](C[C@@H]1CCNC1=O)NC(=O)[C@H](CC1CCCCC1)NC(=O)OCc1ccccc1` was 1.8 µM.

For orientation: EC50 means the midpoint of the concentration-response curve. Low readings indicate a more potent agent, high ones a less potent agent.
